Broadly, the IC50 is the point on the concentration scale where inhibition reaches its midpoint.

These results are taken from ChEMBL document CHEMBL3751844, “Novel juglone and plumbagin 5-O derivatives and their in vitro growth inhibitory activity against apoptosis-resistant cancer cells” (Bioorg Med Chem Lett, 2016).

A short description of series [1]: Growth inhibition of human Hs683 cells by MTT assay. The format is functional, cell-based. Conditions: Hs 683. (In general: Tetrazolium assays rely on reduction of a dye to a coloured formazan, in cell work by metabolically active cells.)
Another series concerns A549. Description: Growth inhibition of human A549 cells by MTT assay. The format is functional, cell-based.
For the next series, the system named is MCF7. Description: Growth inhibition of human MCF7 cells by MTT assay. The format is functional, cell-based.
A further series relates to SK-MEL-28. Description: Growth inhibition of human SK-MEL-28 cells by MTT assay. The format is functional, cell-based.
Series [2] is described as follows: Growth inhibition of mouse B16F10 cells by MTT assay. The format is functional, cell-based. As to conditions: B16-F10.
Series [3] is described as follows: Growth inhibition of human U373 cells by MTT assay. The format is functional, cell-based, U-373MG ATCC. As to conditions: U373 MG.
Series [4] is described as follows: Chemical stability of the compound in MEM and RPMI assessed as compound recovery after 72 hrs in presence of foetal calf serum. Conditions: cattle, MEM and RPMI cell culture media with foetal calf serum; read-out: Drug recovery. The format is physicochemical.
Series [5] deals with U-373MG ATCC. Description: Cytotoxicity against human U373 cells at 5 uM after 72 hrs by video microscopic analysis. The format is functional, cell-based.
The subject of series [6] is U-373MG ATCC. Description: Cytotoxicity against human U373 cells at 17 uM after 72 hrs by video microscopic analysis. The format is functional, cell-based.
For series [7], the system named is U-373MG ATCC. Description: Cytotoxicity against human U373 cells at 8 uM after 72 hrs by video microscopic analysis. The format is functional, cell-based.

Each structure is given as a SMILES string. Active and inactive are the calls of the source. The calls are words filed in the database; no cut-off is given here.

For `CCOc1cccc2c1C(=O)C=C(C)C2=O`, the 50% inhibitory concentration (IC50) turned out to be 2 µM in series [1]; 3 µM in the series with A549; 6 µM in the series with MCF7; 3 µM in the series with SK-MEL-28; 3 µM in series [2]; 24 µM in series [3].

As to `CCCCCCCCCCCC(=O)Oc1cccc2c1C(=O)C=C(C)C2=O`, the half-inhibitory concentration (IC50) in series [1] is 17 µM; in the series with A549 it was 22 µM; in the series with MCF7 it was 29 µM; in the series with SK-MEL-28, 77 µM; in series [2], 3 µM; in series [3], 16 µM. In addition, in series [4], the remaining at 72 h was greater than 95%.

`COc1cccc2c1C(=O)C=CC2=O`: the half-maximal inhibitory concentration (IC50) in [1] was 6 µM; with A549, 9 µM; in the series with MCF7, 39 µM; in the series with SK-MEL-28, 30 µM; in series [2], 10 µM; in series [3] it was 9 µM.

Turning to `CCCCCCCCCCCCCCCCCC(=O)Oc1cccc2c1C(=O)C=C(C)C2=O`, the IC50 is greater than 100 µM in series [1]; greater than 100 µM with A549; greater than 100 µM in the series on MCF7; 91 µM in the series with SK-MEL-28; 46 µM in series [2]; greater than 100 µM in series [3]. Also, the remaining at 72 h in series [4] is greater than 95%.

On to `CC1=CC(=O)c2c(O)cccc2C1=O` [PLUMBAGIN], for which the IC50 is 4 µM in [1]; 3 µM with A549; 3 µM in the series on MCF7; 5 µM with SK-MEL-28; 1 µM in series [2]; 5 µM in series [3]. The result in the series on U-373MG ATCC [5] was Active.

In the case of `O=C1C=CC(=O)c2c(O)cccc21` [JUGLONE], the IC50 in series [1] is 7 µM; in the series on A549, 7 µM; in the series with MCF7, 13 µM; in the series with SK-MEL-28, 7 µM; in [2] it was 6 µM; in series [3], 17 µM. Further, the outcome in the series on U-373MG ATCC [6] was Active.

Turning to `CCCCCCCCCCCCCC(=O)Oc1cccc2c1C(=O)C=CC2=O`, the IC50 in series [1] amounted to 36 µM; in the series with A549, 36 µM; with MCF7, 30 µM; in the series on SK-MEL-28 it was 33 µM; in [2] it was 27 µM; in series [3], 30 µM. Also, the remaining at 72 h in [4] was greater than 95%.

Consider `CCCCCCCCCCCC(=O)Oc1cccc2c1C(=O)C=CC2=O`, for which the IC50 is 29 µM in series [1]; 29 µM in the series on A549; 24 µM in the series with MCF7; 15 µM in the series on SK-MEL-28; 8 µM in series [2]; 18 µM in [3]. Further, the remaining at 72 h in series [4] was greater than 95%.

As to `CC(=O)Oc1cccc2c1C(=O)C=CC2=O`, the half-maximal inhibitory concentration (IC50) is 23 µM in series [1]; 23 µM with A549; 8 µM in the series with MCF7; 23 µM in the series with SK-MEL-28; 7 µM in series [2]; 8 µM in series [3]. For the same compound, the remaining at 72 h in [4] was greater than 95%. Moreover, the result in the series with U-373MG ATCC [7] was Active.

In the case of `CC(C)=CCC/C(C)=C/COc1cccc2c1C(=O)C=CC2=O`, the IC50 in series [1] was 67 µM; with A549, 67 µM; in the series with MCF7, greater than 100 µM; in the series with SK-MEL-28, greater than 100 µM; in series [2], greater than 100 µM; in series [3], greater than 100 µM.

On to `C=CCOc1cccc2c1C(=O)C=C(C)C2=O`, for which the IC50 turned out to be 3 µM in series [1]; 3 µM in the series with A549; 3 µM in the series with MCF7; 3 µM in the series on SK-MEL-28; 1 µM in series [2]; 3 µM in series [3].

Take `C=CCOc1cccc2c1C(=O)C=CC2=O`: the IC50 in series [1] is 19 µM; with A549 it was 26 µM; in the series on MCF7, 21 µM; in the series on SK-MEL-28, 24 µM; in [2], 4 µM; in [3], 32 µM.

`CCCCCCCC/C=C\CCCCCCCC(=O)Oc1cccc2c1C(=O)C=CC2=O`: the 50% inhibitory concentration (IC50) in [1] stood at 77 µM; with A549, 77 µM; with MCF7, 61 µM; in the series on SK-MEL-28, 67 µM; in series [2] it was 61 µM; in [3], 91 µM. Moreover, the remaining at 72 h in [4] was greater than 95%.

Take `CC(C)=CCC/C(C)=C/COc1cccc2c1C(=O)C=C(C)C2=O`: the IC50 came to 22 µM in series [1]; 23 µM in the series on A549; 40 µM in the series with MCF7; 31 µM with SK-MEL-28; 30 µM in series [2]; 59 µM in [3].

Take `CCOc1cccc2c1C(=O)C=CC2=O`: the IC50 in series [1] turned out to be 23 µM; with A549, 19 µM; in the series with MCF7 it was 24 µM; in the series with SK-MEL-28, 9 µM; in [2], 5 µM; in [3] it was 29 µM.

`CCCCCCCCCCCCCCCC(=O)Oc1cccc2c1C(=O)C=C(C)C2=O`: the IC50 in [1] was 33 µM; in the series with A549 it was 30 µM; in the series with MCF7, 57 µM; in the series on SK-MEL-28 it was 73 µM; in [2], 22 µM; in series [3], 48 µM. For the same compound, in [4], the remaining at 72 h is greater than 95%.

As for `CCCCCCCC/C=C\CCCCCCCC(=O)Oc1cccc2c1C(=O)C=C(C)C2=O`, the IC50 in series [1] was 35 µM; with A549, 36 µM; with MCF7, 57 µM; in the series with SK-MEL-28, 31 µM; in series [2], 22 µM; in series [3], 62 µM. In addition, the remaining at 72 h in [4] is greater than 95%.

On to `CCCCCCCCCCCCCC(=O)Oc1cccc2c1C(=O)C=C(C)C2=O`, for which the IC50 was found to be 9 µM in series [1]; 12 µM in the series on A549; 22 µM in the series on MCF7; 18 µM in the series with SK-MEL-28; 3 µM in series [2]; 16 µM in series [3]. Besides, the remaining at 72 h in series [4] is greater than 95%.

For `CC(=O)Oc1cccc2c1C(=O)C=C(C)C2=O`, the half-maximal inhibitory concentration (IC50) was 5 µM in series [1]; 5 µM with A549; 4 µM in the series on MCF7; 3 µM with SK-MEL-28; 0.4 µM in series [2]; 5 µM in [3]. In series [4], the remaining at 72 h was greater than 95%.

As for `CCCCCCCCCCCCCCCC(=O)Oc1cccc2c1C(=O)C=CC2=O`, the IC50 is greater than 100 µM in series [1]; greater than 100 µM in the series with A549; 86 µM in the series on MCF7; greater than 100 µM in the series on SK-MEL-28; 53 µM in series [2]; greater than 100 µM in series [3]. Also, the remaining at 72 h in series [4] is greater than 95%.

On to `COc1cccc2c1C(=O)C=C(C)C2=O`, for which the 50% inhibitory concentration (IC50) is 3 µM in [1]; 4 µM in the series with A549; 5 µM in the series with MCF7; 5 µM with SK-MEL-28; 2 µM in series [2]; 5 µM in series [3]. The result in the series with U-373MG ATCC [5] was Active.

For the compound `CC(C)=CCOc1cccc2c1C(=O)C=C(C)C2=O`, the 50% inhibitory concentration (IC50) stood at 3 µM in series [1]; 4 µM in the series with A549; 3 µM with MCF7; 7 µM with SK-MEL-28; 1 µM in [2]; 7 µM in series [3].

With `CCCCCCCCCCCCCCCCCC(=O)Oc1cccc2c1C(=O)C=CC2=O`, the 50% inhibitory concentration (IC50) in series [1] amounted to 67 µM; in the series with A549, 67 µM; in the series with MCF7, 30 µM; in the series with SK-MEL-28, 18 µM; in [2], 19 µM; in [3] it was 65 µM. Further, the remaining at 72 h in series [4] is greater than 95%.

Consider `CC(C)=CCOc1cccc2c1C(=O)C=CC2=O`, for which the IC50 in series [1] worked out at 7 µM; in the series with A549 it was 6 µM; with MCF7, 16 µM; in the series on SK-MEL-28, 5 µM; in series [2] it was 7 µM; in [3] it was 15 µM.
